Test results as given in patent US7671052B2 (priority 2004, dated 2010).
Like-named read-outs stand apart in the source and are kept apart here.

How the values were obtained:
[1] = tested on: Male ICR mice; experiment: Catalepsy ring test; assay type: in vivo, mouse; settings: for % catalepsy @ 30 mg/kg: 30 mg/kg i.p.; for % catalepsy @ 30 mg/kg / % catalepsy @ 100 mg/kg: 60 or 90 minutes after dosing; for % catalepsy @ 100 mg/kg: 100 mg/kg i.p.
Procedure: The apparatus consisted of a 5.5 centimeter ring attached to a ring stand at a height of 16 centimeters. Male ICR mice (20-25 g) were placed on the ring 60 or 90 minutes after dosing (i.p.) with test compounds or vehicle. Normal behavior for a mouse would be to walk around and investigate the ring. Catalepsy was shown when the mouse remained motionless. The amount of time (in seconds, in a 5 minute test session) the mouse spent motionless was determined.
Mice that fell or jumped were allowed 5 “escapes”. If 5 “escapes” happened before 2.5 minutes into the test, the data were disregarded. The immobility index (% catalepsy) was determined by the amount of time spent immobile divided by the length of the test (P. Little et al. Pharmac. Biochem. & Behavior 1989, 32, 661-666). Since the CB1 receptor is thought to be responsible for psychoactivity, the catalepsy ring test is an excellent in vivo screen for CB1 activity.

[2] = tested on: Male Sprague-Dawley rats; experiment: Neuropathic pain assay: L5 spinal nerve ligation, tactile sensitivity (von Frey); assay type: in vivo, rat; settings: L5 SNL rats
Procedure: Male Sprague-Dawley rats (120-250 g, Harlan Laboratories, Columbus, Ohio) were housed in pairs and allowed free access to food and water throughout the study. Room temperature and humidity were maintained at 21° C. and 70%, respectively. Nerve injury was produced with tight ligation of the left L5 spinal nerve (Kim and Chung, 1992; LaBuda and Fuchs, 2000a, 2000b, LaBuda, Donahue and Fuchs, 2001). Briefly, animals were placed in the prone position to access the left L4-L6 spinal nerves. Under magnification, approximately one third of the L6 transverse process was removed. The L5 spinal nerve was identified and carefully dissected free from the adjacent L4 spinal nerve and then tightly ligated using 6-0 silk suture. The wound was treated with an antiseptic solution, the muscle layer was sutured, and the wound was closed with wound clips. Sham-operated surgical controls were prepared in the same manner, but the L5 spinal nerve was not […]. All housing conditions and experimental procedures were performed in accordance with the ethical guidelines of the IASP and the Adolor Corporation Animal Care and Use Committee.
Seven to ten animals per group were used for all behavioral assays. After a 7-10 day post-surgical recovery, animals were tested for baseline sensitivity to tactile stimulation of both hindpaws. Allodynic animals were defined as animals having a threshold of less than 7.5 grams of pressure applied to the injured hindpaw. Tactile sensitivity was evaluated using von Frey monofilaments before and after treatment. […] Thirty minutes after treatment, tactile sensitivity was evaluated. Five to seven days later, animals were tested using a different compound. Each animal was tested three times with different compounds. All behavioral testing was performed between 9:00 AM and 5:00 PM in a well-illuminated room with white background noise.
Animals were placed in a Plexiglas chamber (20 cm×10.5 cm×40.5 cm) and habituated for 15 minutes. The chamber was positioned on top of a mesh screen so that von Frey monofilaments could be presented to the plantar surfaces of both hindpaws. Measurements of tactile sensitivity for each hindpaw were obtained using the up/down method (Dixon, 1980) with seven von Frey monofilaments (0.04, 0.07, 0.16, 0.4, 1, 6, and 15 grams). Each trial started with a von Frey force of 0.4 g delivered to the right hindpaw and then the left hindpaw for approximately 1-2 sec each. If there was no withdrawal response, the next higher force was delivered. If there was a response, the next lower force was delivered. This procedure was performed until no response was made at the highest force (15 grams) or until four stimuli were administered following the initial response. The 50% paw withdrawal threshold for each paw was calculated using the following formula: [Xth]log=[vFr]log+ky where [vFr] is the force of the last von Frey filament used, k=0.2249 which is the average interval (in log units) between the von Frey monofilaments, and y is a value that depends upon the pattern of withdrawal responses (Dixon, 1980). […] Testing for tactile sensitivity was performed twice and the mean 50% withdrawal value assigned as the tactile sensitivity for the right and left paws for each animal.
Tactile sensitivity for both hindpaws before and after treatments were analyzed using one-way analysis of variance (ANOVA) followed by post-hoc comparisons (protected t-test) for group differences. An alpha level of 0.05 was used for all analyses.

[3] = target: T1, hCB1 (Homo sapiens, UniProt P21554); experiment: Inhibition of [3H]CP55940 binding to hCB1 receptor membranes; settings: human cloned CB1 receptor
T1 construct: expressed in transfected cells; host or cells: CHO-K1 (Chinese hamster ovary), stably transfected; membrane preparation
Procedure: (§1) Chinese hamster ovary cells (CHO-K1), stably transfected with either hCB1 or hCB2, were washed two times with cold PBS, scraped from 500 cm^2 tissue culture plates, and pelleted by centrifugation at 1000×g for 10 min. The supernatant was discarded and the pellet was re-suspended in Tris assay buffer (50 mM Tris HCl, pH 7.8, containing 1.0 mM EGTA, 5.0 mM MgCl2, 10 μg/mL leupeptin, 10 μg/mL pepstatin A, 200 μg/mL bacitracin, and 0.5 μg/mL aprotinin), homogenized with a Polytron homogenizer (Brinkmann) at a setting of 1 for 20 sec and centrifuged at 38,000×g for 20 min at 4° C. The pellet was re-suspended in Tris assay buffer and aliquots of 1 mg protein/mL were stored at −80° C. for further use.
Binding assays were performed by incubating 0.2-0.6 nM (34,000-100,000 dpm) of [^3H]CP55940 with membranes prepared from cells expressing cloned human CB1 or CB2 receptors in buffer A (50 mM Tris HCl, pH 7.0, 5.0 mM MgCl2, 1.0 mM EGTA and 1.0 mg/mL fatty acid free bovine serum albumin). […] The filters were rinsed 6 times with one mL of cold wash buffer (50 mM Tris HCl, pH 7.0, 5.0 mM MgCl2, 1.0 mM EGTA and 0.75 mg/mL fatty acid free bovine serum albumin), 30 μL of MicroScint 20 was added to each filter and the radioactivity on the filters determined by scintillation spectroscopy. Nonspecific binding was determined in the presence of 10 μM WIN55212-2. […]

[4] = target: T2, hCB2 (Homo sapiens, UniProt P34972); experiment: Inhibition of [3H]CP55940 binding to hCB2 receptor membranes
T2 construct: expressed in transfected cells; host or cells: CHO-K1 (Chinese hamster ovary), stably transfected; membrane preparation

[5] = target: T1, hCB1; experiment: hCB1-mediated stimulation of [35S]GTPγS binding; assay type: biochemical; settings: read-out: in vitro CB1 receptor agonist potency (EC50)
Procedure: as §1
hCB1-mediated stimulation of [^35S]GTPγS binding was measured in a mixture containing 100-150 pM [^35S]GTPγS, 150 mM NaCl, […], 0.4 mM DTT, 1 mM EGTA, 1 mg/mL fatty acid free BSA, 25 μg of membrane protein and agonist in a total volume of 250 μL of buffer A in 96 well Basic Flashplates (Perkin Elmer). After incubation at room temperature for 2 hours the plates were centrifuged at 800×g at 4° C. for 5 min and the radioactivity bound to the membranes was determined by scintillation spectrometry using the Topcount (Perkin Elmer). […]

[6] = target: T2, hCB2; experiment: hCB2-mediated stimulation of [35S]GTPγS binding; assay type: biochemical; settings: read-out: in vitro CB2 receptor agonist potency (EC50)
Procedure: hCB2-mediated [^35S]GTPγS binding was measured in the same way except the assay mixture contained 10 mM GDP and the incubation time was 6 hours. […] After incubation at 30° C. for 2 hours, the plates were centrifuged at 800×g at 4° C. for 5 min and the radioactivity bound to the membrane was determined by scintillation spectrometry using the Topcount (Perkin Elmer).
EC50 values in functional assays were also derived from automated nonlinear regression analysis of sigmoidal titration curves using the three-parameter modification of the four-parameter equation.

[7] = Table 3, 10 mg/kg, n = 7-8/group
[8] = Table 3, 2.5 mg/kg i.p., n = 7-8/group

T1 sequence (P21554 whole entry): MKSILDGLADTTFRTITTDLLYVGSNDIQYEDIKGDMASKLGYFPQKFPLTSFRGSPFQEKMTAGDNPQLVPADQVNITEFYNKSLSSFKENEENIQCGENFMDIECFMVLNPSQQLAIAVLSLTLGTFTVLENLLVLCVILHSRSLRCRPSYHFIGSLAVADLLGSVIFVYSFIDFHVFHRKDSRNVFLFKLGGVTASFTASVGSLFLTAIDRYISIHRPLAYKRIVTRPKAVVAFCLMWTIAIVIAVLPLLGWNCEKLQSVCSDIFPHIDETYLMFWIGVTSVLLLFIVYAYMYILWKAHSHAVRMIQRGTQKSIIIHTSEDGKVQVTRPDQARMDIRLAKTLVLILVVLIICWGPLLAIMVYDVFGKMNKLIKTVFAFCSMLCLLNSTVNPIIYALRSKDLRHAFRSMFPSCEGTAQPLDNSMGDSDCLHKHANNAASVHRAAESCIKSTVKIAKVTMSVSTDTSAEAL
T2 sequence (P34972 whole entry): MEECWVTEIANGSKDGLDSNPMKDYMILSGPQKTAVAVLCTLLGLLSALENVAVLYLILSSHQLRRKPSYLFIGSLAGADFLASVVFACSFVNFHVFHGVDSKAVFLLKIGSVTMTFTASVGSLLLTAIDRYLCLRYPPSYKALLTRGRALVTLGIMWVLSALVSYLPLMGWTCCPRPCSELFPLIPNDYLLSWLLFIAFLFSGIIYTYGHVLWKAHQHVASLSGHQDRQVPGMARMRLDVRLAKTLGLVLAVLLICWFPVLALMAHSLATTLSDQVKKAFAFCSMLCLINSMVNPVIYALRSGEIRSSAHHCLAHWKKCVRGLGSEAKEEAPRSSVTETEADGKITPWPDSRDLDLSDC

SMILES: CC(C)(CCCCC(=O)N1CCOCC1)c1ccc(-c2cccc(CNS(C)(=O)=O)c2)c(O)c1 [Compound 71]
- % catalepsy @ 30 mg/kg [1]: 3.38 ± 2.75%
- % catalepsy @ 100 mg/kg [1]: 24.65 ± 3.36%

SMILES: CCNC(=O)NCc1cccc(-c2ccc(C(C)(C)COCCOC)cc2O)c1 [Compound 17, 1-Ethyl-3-{2′-hydroxy-4′-[2-(2-methoxy-ethoxy)-1,1-dimethyl-ethyl]-biphenyl-3-ylmethyl}-urea]
- % catalepsy @ 30 mg/kg [1]: 12.21 ± 2.79%
- % catalepsy @ 100 mg/kg [1]: 47.93 ± 5.98%

SMILES: CCNC(=O)NCc1cccc(-c2ccc(C(C)(C)COCCC(=O)N3CCOCC3)cc2O)c1 [Compound 11, 1-{4′-[1,1-Dimethyl-2-(3-morpholin-4-yl-3-oxo-propoxy)-ethyl]-2′-hydroxy-biphenyl-3-yl-methyl}-3-ethyl-urea]
- % catalepsy @ 30 mg/kg [1]: 6.65 ± 1.87%
- % catalepsy @ 100 mg/kg [1]: 18.80 ± 3.33%

SMILES: CCNC(=O)NCc1cccc(-c2ccc(C(C)(C)CCCNC(=O)C(C)(C)C)cc2O)c1 [Compound 35, N-(4-{3′-[(3-Ethyl-ureido)-methyl]-2-hydroxy-biphenyl-4-yl}-4-methyl-pentyl)-2,2-dimethyl-propionamide]
- Threshold [2, 7]: 10.96 ± 2.66 g

SMILES: CC(C)(CCCCC(=O)N1CCOCC1)c1ccc(-c2cccc(CNC(=O)C3CCCO3)c2)c(O)c1 (centres unmarked) [Compound 41, Tetrahydrofuran-2-carboxylic acid [4′-(1,1-dimethyl-6-morpholin-4-yl-6-oxo-hexyl)-2′-hydroxy-biphenyl-3-ylmethyl]-amide]
- % catalepsy @ 30 mg/kg [1]: 13.07 ± 2.85%
- % catalepsy @ 100 mg/kg [1]: 58.78 ± 7.95%

SMILES: CCCCOCC(C)(C)c1ccc(-c2ccccc2CNC(=O)NCC)c(O)c1 [Compound 12, 1-[4′-(2-Butoxy-1,1-dimethyl-ethyl)-2′-hydroxy-biphenyl-2-ylmethyl]-3-ethyl-urea]
- Ki [3]: 1.6 nM
- Ki ([4]; human cloned CB2 receptor, read-out: Ki(CB2)): 0.56 nM
- EC50 [5]: 15.5 nM
- EC50 [6]: 15.2 nM

SMILES: Cc1c(C(=O)c2cccc3ccccc23)c2cccc3c2n1[C@H](CN1CCOCC1)CO3 [WIN+, WIN55,212-2, reference compound]
- % catalepsy ([1]; WIN @ 10 mg/kg i.p.): 51.64 ± 2.69%
- Threshold [2, 8]: 15.03 ± 1.70 g

SMILES: CCCCOCC(C)(C)c1ccc(-c2cccc(CNC(=O)NCCC)c2)c(O)c1 [Compound 15, 1-[4′-(2-Butoxy-1,1-dimethyl-ethyl)-2′-hydroxy-biphenyl-3-ylmethyl]-3-propyl-urea]
- Ki [3]: 1.1 nM
- Ki [4]: 0.4 nM
- EC50 [5]: 29.1 nM
- EC50 [6]: 5.1 nM

SMILES: Cc1c(C(=O)c2cccc3ccccc23)c2cccc3c2n1[C@@H](CN1CCOCC1)CO3 [WIN−, WIN55,212-3, reference compound]
- Threshold [2, 8]: 6.25 ± 1.19 g

SMILES: CCNC(=O)NCc1cccc(-c2ccc(C(C)(C)CCCCC(=O)N3CCOCC3)cc2O)c1 [Compound 20, 1-[4′-(1,1-Dimethyl-6-morpholin-4-yl-6-oxo-hexyl)-2′-hydroxy-biphenyl-3-yl-methyl]-3-ethyl-urea]
- % catalepsy @ 30 mg/kg [1]: 3.07 ± 1.15%
- % catalepsy @ 100 mg/kg [1]: 5.05 ± 1.81%
- Threshold ([2]; Table 2, 10 mg/kg i.p., n = 8): 12.16 ± 2.41 g
- Threshold ([2]; Table 2, 30 mg/kg i.p., n = 8): 12.02 ± 2.54 g
- Threshold ([2]; Table 3, 3 mg/kg, n = 7-8/group): 9.14 ± 3.36 g
- Threshold [2, 7]: 16.69 ± 1.19 g
